Several values for one entry are separate records, joined by “and”; a condition that tells them apart may be missing. Equal values may be shown once. Entries after “also recorded” stand apart in the source; their conditions may differ.
Experiments:
[1] = system: HIF-1α / hydroxylated HIF-1α (Hdy-HIF-1α); test: Western blot of HIF-1α and Hdy-HIF-1α levels in HeLa cells; assay type: cell-based, Human; conditions: HeLa, 1 μM, 10 h
Protocol: (§1) For single time point treatment experiments, cells were transferred in 6-well plates with 5×10^5 cells per well in 2 ml media in order to achieve 80% confluence the following day. Stock concentrations of compounds were prepared by solubilizing the powder in 100% v/v DMSO to the final desired stock concentration.
(§2) On the day of treatment, all compound samples were prepared as 100-fold concentrated compound solution using DMEM just before treatment. The experiment samples (20 μL) were added to the 6 well plate containing 2 ml of media. The final DMSO concentration was 0.1% v/v. Cells were incubated at 37° C. and 5% CO2 for the desired time before harvesting.
(§3) For time dependent treatment, cells were transferred in 6-well plates with 3×10^5 cells per well in 2 ml media. Samples were prepared as detailed above or the single time point experiments. Treatment was conducted at given time points prior to harvest.
(§4) Cells were lysed in lysis buffer (20 mM Tris pH 8, 150 mM NaCl, 1% Triton x100) and a protease inhibitor cocktail (Roche) per 10 ml buffer. For protein extracts, the dishes were placed on ice. The media was aspirated and the tissue layer washed twice with ice-cold phosphate buffer saline (PBS). Lysis buffer (120 μl) was added and the cells detached from the surface with a cell scraper. After removal of the insoluble fraction by centrifugation, the protein concentration of the supernatant was determined by Pierce™ Coomassie (Bradford) Protein Assay Kit. Protein extracts were fractionated by SDS-PAGE on 4-12% Tris-Acetate NuPage® Novex® (Life Technologies) polyacrylamide gels and transferred to a nitrocellulose membrane using wet transfer. The membrane was then blocked with 5% w/v Bovine serum albumin (BSA) in Tris-buffered saline (TBS) with 0.1% w/v Tween-20. For detecting proteins the following primary antibodies in the given concentrations were used: anti-β-Actin (Cell Signaling Technology, 4970S, 13E5) 1:2000, anti-VHL (Cell Signaling Technology, #68547) 1:1000, anti-Hif-1α (BD Biosciences, 610959, clone 54) 1:1000, anti-hydroxy-HIF-1α (Hyp564) (Cell Signaling Techonology; #3434) 1:1000, anti-PHD2 (Bethyl Laboratories; A300-322A) 1:1000, anti-PHD3 (Bethyl Laboratories; A300-327A) 1:1000, anti-CRBN (Proteintech; 11435-1-AP) 1:1000.
(§5) Following incubation with a horseradish peroxidase-conjugated secondary antibody (Cell Signaling Technology), the signal was developed using enhanced chemiluminescence (ECL) Western Blotting Detection Kit (Amersham) on Amersham Hyperfilm ECL film (Amersham).
(§6) Band quantification was performed using ImageJ software and reported as relative amount as ratio of the each protein band relative to the lane's loading control. The values obtained were then normalized to 0.1% DMSO vehicle control.

[2] = molecular target: pVHL19 (VCB complex: VHL with Elongin B and Elongin C) (Homo sapiens, UniProt P40337); test: ITC titration against VCB, short VHL isoform; assay type: binding; conditions: ITC; for Kd / ΔG / ΔH / α (cooperativity/avidity) / −TΔS: pVHL19; for n (stoichiometry): pVHL19, 25° C.
Protocol: (§7) Titrations were performed on an ITC200 micro-calorimeter (GE Healthcare). […] The final DMSO concentration was 0.15% v/v. VBC protein experiments were carried out in a buffer containing 20 mM Bis-tris propane, 150 mM NaCl, 1 mM TCEP, 0.15% v/v DMSO, pH 7.4. The titrations consisted of 19 injections of 2 μL compounds solution (150 μM, in the syringe) at a rate of 2 s/μL at 120 s time intervals into the VCB protein solution (20 μM, in the cell). An initial injection of compound solution (0.4 μL) was made and discarded during data analysis. All experiments were performed at 25° C., whilst stirring the syringe at 600 rpm. The data were fitted to a single binding site model to obtain the stoichiometry n, the dissociation constant Kd and the enthalpy of binding ΔH using the Microcal LLC ITC200 Origin software provided by the manufacturer.

VCB complex = VCB complex (Homo sapiens, UniProt P40337); test: Size exclusion chromatography of VCB complex formation; assay type: binding; conditions: SEC; for shift of VCB peak / ternary complex formation: VCB 50 μM, compound 30 μM
Protocol: SEC experiments were carried out in a AKTA pure system (GE Healthcare) at room temperature. The oligomeric state of the VCB complex in solution was analyzed by gel filtration in a buffer containing 20 mM Bis-Tris (pH 7), 150 mM NaCl and 1 mM 1,4-dithiothreitol (DTT) using a Superdex 200 Increase 10/300 GL column (GE Healthcare) calibrated with globular proteins of known molecular weight (GE Healthcare, 28-4038-41/42). […] Sample volume for each injection was 200 μL, and the flow rate was 0.5 mL/min. Peak elution was monitored using ultraviolet absorbance at 280 nm.

[3] = molecular target: T1, VCB (biotinylated VCB and His-VCB) (Homo sapiens, UniProt P40337); test: AlphaLISA proximity assay of ternary complex formation; assay type: binding; conditions: VCB 20 nM each, 0.5 to 200 nM Homo-PROTAC
T1 construct: His tag (printed 'Hiss-VCB'); biotin (chemical labelling with NHS-PEG4-biotin); on the other VCB population
Protocol: The VCB complex was mixed with EZ-link NHS-PEG4-biotin (Thermo Scientific) in a 1:1 molar ratio and incubated at room temperature for 1 h. The reaction was quenched using 1 M Tris-HCl, pH 7.5, and unreacted NHS-biotin was removed with a PD-10 MiniTrap desalting column (GE Healthcare) equilibrated with 20 mM HEPES, pH 7.5, 150 mM NaCl and 1 mM DTT.
All assays were performed at room temperature in 384-well plates with a final assay volume of 25 μL per well; plates were sealed with transparent film between addition of reagents. All reagents were prepared as 5× stocks diluted in 50 mM HEPES, pH 7.5, 100 mM NaCl, 0.1% (w/v) bovine serum albumin and 0.02% (w/v) 3-[(cholamidopropyl)dimethylammonio]-1-propanesulfonate (CHAPS). Biotinylated VCB (20 nM final) and Hiss-VCB (20 nM final) were incubated with a range of Homo-PROTAC concentrations (0.5 to 200 nM; three-in-five serial dilution) for 1 h. Anti-His acceptor beads (PerkinElmer, 10 μg/mL final) were added and plates were incubated for another hour. Streptavidin-coated donor beads (PerkinElmer, 10 μg/mL final) were added and plates were incubated for a final 1 h. Plates were read on a PHERAstar FS (BMG Labtech) using an optic module with an excitation wavelength of 680 nm and emission wavelength of 615 nm. Intensity values were plotted against PROTAC concentration on a logo scale.

[4] = molecular target: T2, pVHL30 (long isoform of VHL) (Homo sapiens, UniProt P40337); test: Western blot of VHL levels in HeLa cells; assay type: cell-based; conditions: for depletion/degradation of VHL (pVHL30): 1 μM, 10 h
T2 construct: endogenous in cells; host or cells: HeLa
Protocol: as §1, §2, §3
Cells were transferred in 6-well plates with 5×10^5 cells per well in 2 ml media in order to achieve 80% confluence the day after. At t=0, MLN4924 was added into the desired wells at 3 μM final concentration and 0.1% v/v of DMSO. DMSO (0.1% v/v final conc.) was added to the remaining wells in order to match identical conc. of vehicle in all wells. At t=3 h, MG 132 was added into the desired wells at 50 μM final conc. and 0.1% v/v of DMSO. DMSO (0.1% v/v final conc.) was added to the remaining wells in order to achieve the same conc. of vehicle in all the wells. […] DMSO (0.1% v/v final conc.) was added to the remaining wells in order to obtain the same conc. of vehicle in all the wells. The total final concentration of DMSO was therefore 0.3% v/v. Plates were incubated for 4 h at 37° C. and 5% CO2 before harvesting.
Cells were transferred in 6-well plates with 5×10^5 cells per well in 2 ml media in order to achieve 80% confluence the day after. […] Plates were incubated for the desired time at 37° C. and 5% CO2 before harvesting.
For this experiments, cells were transferred in 6-well plates with 5×10^5 cells per well in 2 ml media in order to achieve 80% confluence the day after. […] Plates were incubated for the desired time at 37° C. and 5% CO2 before harvesting.
as §4, §5
Band quantification was performed using ImageJ software and reported as relative amount as ratio of the each protein band relative to the lane's loading control. […]

pVHL30 = molecular target: T3, pVHL30 (Homo sapiens, UniProt P40337); test: Western blot of VHL levels in U2OS cells; assay type: cell-based; conditions: for profile of cellular activity: 10 h, 1 nM-100 μM; for cellular efficacy at longer time points / time of treatment to complete degradation of pVHL30: time course
T3 construct: endogenous in cells; host or cells: U2OS
Protocol: as §1, §2, §3, §4, §5, §6

pVHL30 (VCB complex) = pVHL30 (VCB complex) (Homo sapiens, UniProt P40337); test: ITC titration against VCB, long VHL isoform; assay type: binding
Protocol: as §7

T2 sequence (P40337 whole entry, canonical isoform): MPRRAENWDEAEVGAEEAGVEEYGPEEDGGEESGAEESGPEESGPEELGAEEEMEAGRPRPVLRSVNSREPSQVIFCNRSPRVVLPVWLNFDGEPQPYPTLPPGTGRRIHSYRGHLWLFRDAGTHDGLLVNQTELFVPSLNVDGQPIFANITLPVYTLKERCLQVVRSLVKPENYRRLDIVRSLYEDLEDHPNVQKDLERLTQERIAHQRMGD
Sequence of pVHL30 (VCB complex) (P40337 whole entry, canonical isoform): as above
Sequence of pVHL30 (VCB complex) (Q15370 1-104 partner limits assumed): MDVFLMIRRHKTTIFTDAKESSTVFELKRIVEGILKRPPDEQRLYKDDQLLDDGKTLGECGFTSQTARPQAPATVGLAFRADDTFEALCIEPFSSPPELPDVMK
Sequence of pVHL30 (VCB complex) (Q15369 17-112 partner limits assumed): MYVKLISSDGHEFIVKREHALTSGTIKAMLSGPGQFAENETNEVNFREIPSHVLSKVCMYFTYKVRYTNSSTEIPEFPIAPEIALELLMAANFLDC
T3 sequence (P40337 whole entry): as the sequence (P40337 whole entry, canonical isoform) above
Sequence of pVHL19 (VCB complex: VHL with Elongin B and Elongin C) (P40337 54-213): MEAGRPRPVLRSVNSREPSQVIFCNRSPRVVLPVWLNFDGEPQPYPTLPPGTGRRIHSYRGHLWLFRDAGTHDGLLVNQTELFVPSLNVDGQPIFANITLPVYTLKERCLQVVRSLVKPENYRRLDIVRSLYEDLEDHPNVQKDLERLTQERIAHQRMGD
Sequence of pVHL19 (VCB complex: VHL with Elongin B and Elongin C) (Q15370 1-104 partner limits assumed): as the sequence (Q15370 1-104 partner limits assumed) above
Sequence of pVHL19 (VCB complex: VHL with Elongin B and Elongin C) (Q15369 17-112 partner limits assumed): as the sequence (Q15369 17-112 partner limits assumed) above
Sequence of VCB complex (P40337 54-213 limits assumed): as the sequence (P40337 54-213) above
Sequence of VCB complex (Q15370 1-104 partner limits assumed): as the sequence (Q15370 1-104 partner limits assumed) above
Sequence of VCB complex (Q15369 17-112 partner limits assumed): as the sequence (Q15369 17-112 partner limits assumed) above
T1 sequence (P40337 54-213 limits assumed): as the sequence (P40337 54-213) above
T1 sequence (Q15370 1-104 partner limits assumed): as the sequence (Q15370 1-104 partner limits assumed) above
T1 sequence (Q15369 17-112 partner limits assumed): as the sequence (Q15369 17-112 partner limits assumed) above

Structure (SMILES)	HIF-1α level [1]	Kd [2]	ΔG [2]	ΔH [2]	α (cooperativity/avidity) [2]	−TΔS [2]	n (stoichiometry) [2]	shift of VCB peak / ternary complex formation (VCB complex)	AlphaLISA intensity signal / complex formation [3]	profile of cellular activity (pVHL30)	cellular efficacy at longer time points (pVHL30)	time of treatment to complete degradation of pVHL30 (pVHL30)	depletion/degradation of VHL (pVHL30) [4]	other results
Cc1ncsc1-c1ccc(CNC(=O)[C@@H]2C[C@@H](O)CN2C(=O)[C@@H](NC(=O)COCCOCCOCCOCC(=O)N[C@H](C(=O)N2C[C@H](O)C[C@H]2C(=O)NCc2ccc(-c3scnc3C)cc2)C(C)(C)C)C(C)(C)C)cc1 [CM09, N^1,N^14-bis((S)-1-((2S,4R)-4-hydroxy-2-((4-(4-methylthiazol-5-yl)benzyl)carbamoyl)pyrrolidin-1-yl)-3,3-dimethyl-1-oxobutan-2-yl)-3,6,9,12-tetraoxatetradecanediamide]	slight increase	41 ± 15 nM	-10.3 ± 0.2 kcal/mol	-6.9 ± 0.3 kcal/mol	4	-3.5 ± 0.5 kcal/mol	0.98 ± 0.09	formation of a ternary complex eluting at identical retention volume	negligible levels of complex formation	consistent profile of cellular activity	lost its cellular efficacy after 36 h	2 h	–	degradation of pVHL over time ([4]; time course, also longer time points): Incomplete degradation
Cc1ncsc1-c1ccc(CNC(=O)[C@H]2C[C@@H](O)CN2C(=O)[C@H](NC(=O)COCCOCCOCCOCCOCC(=O)N[C@H](C(=O)N2C[C@H](O)C[C@H]2C(=O)NCc2ccc(-c3scnc3C)cc2)C(C)(C)C)C(C)(C)C)cc1 [CMP99, N^1—((R)-1-((2R,4R)-4-hydroxy-2-((4-(4-methylthiazol-5-yl)benzyl)carbamoyl)pyrrolidin-1-yl)-3,3-dimethyl-1-oxobutan-2-yl)-N^17—((S)-1-((2S,4R)-4-hydroxy-2-((4-(4-methylthiazol-5-yl)benzyl)carbamoyl)pyrrolidin-1-yl)-3,3-dimethyl-1-oxobutan-2-yl)-3,6,9,12,15-pentaoxaheptadecanediamide]	–	146 ± 2 nM	-9.33 ± 0.06 kcal/mol	-6.23 ± 0.05 kcal/mol	–	-3.1 ± 0.7 kcal/mol	0.964 ± 0.005	no shift	–	–	–	–	unable to induce degradation of VHL	Kd (pVHL30 (VCB complex)): 106 ± 10 nM; n (stoichiometry) (pVHL30 (VCB complex)): 1.050 ± 0.004; ΔG (pVHL30 (VCB complex)): -9.51 ± 0.05 kcal/mol; ΔH (pVHL30 (VCB complex)): -5.19 ± 0.03 kcal/mol; −TΔS (pVHL30 (VCB complex)): -4.3 ± 0.1 kcal/mol; elution volume of small peak (VCB complex): 13.5 mL
Cc1ncsc1-c1ccc(CNC(=O)[C@@H]2C[C@@H](O)CN2C(=O)[C@@H](NC(=O)COCCOCCOCCOCCOCC(=O)N[C@H](C(=O)N2C[C@H](O)C[C@H]2C(=O)NCc2ccc(-c3scnc3C)cc2)C(C)(C)C)C(C)(C)C)cc1 [CM10, N^1,N^17-bis((S)-1-((2S,4R)-4-hydroxy-2-((4-(4-methylthiazol-5-yl)benzyl)carbamoyl)pyrrolidin-1-yl)-3,3-dimethyl-1-oxobutan-2-yl)-3,6,9,12,15-pentaoxaheptadecanediamide]	slight increase	32 ± 5 nM	-10.2 ± 0.1 kcal/mol	-9.4 ± 0.1 kcal/mol	6	-0.8 ± 0.2 kcal/mol	0.7 and 0.73 ± 0.01	formation of a ternary complex eluting at identical retention volume	negligible levels of complex formation	consistent profile of cellular activity	retained their efficacy	2 h	total knockdown; also recorded: complete depletion	protein levels of Hdy-HIF-1α [1]: detectable albeit low increase

Source: patent publication US11261179B2, “Small molecules” (University of Dundee, priority 2017, dated 2022)
